Reference: patent US10645928B2, “Pesticidally active polycyclic derivatives with sulfur containing substituents” (Syngenta Participations AG, priority 2014, dated 2020)

Experiments:
Format in all cases: in vivo
[1] = test system: Diabrotica balteata (Corn Root Worm); assay: Example B2: Diabrotica balteata, sprayed maize sprouts, mortality and growth inhibition; settings: 96 h, application rate of 200 ppm, L2 larvae, 4 days after infestation, read-out: effect in at least one of the two categories (mortality or growth inhibition)
Procedure: Maize sprouts placed onto an agar layer in 24-well microtiter plates were treated with aqueous test solutions prepared from 10,000 ppm DMSO stock solutions by spraying. After drying, the plates were infested with L2 larvae (6 to 10 per well). The samples were assessed for mortality and growth inhibition in comparison to untreated samples 4 days after infestation.

[2] = test system: Diabrotica balteata (Corn Root Worm); assay: Example B3: Diabrotica balteata, sprayed maize sprouts, mortality; settings: 96 h, application rate of 200 ppm, L2 larvae, 4 days after infestation
Procedure: Maize sprouts placed onto an agar layer in 24-well microtiter plates were treated with aqueous test solutions prepared from 10,000 ppm DMSO stock solutions by spraying. After drying, the plates were infested with L2 larvae (6 to 10 per well). The samples were assessed for mortality 4 days after infestation.

[3] = test system: Euschistus heros (Neotropical Brown Stink Bug); assay: Example B5: Euschistus heros, sprayed soybean leaves, mortality; settings: 120 h, application rate of 200 ppm, N2 nymphs, 5 days after infestation
Procedure: Soybean leaves on agar in 24-well microtiter plates were sprayed with aqueous test solutions prepared from 10,000 ppm DMSO stock solutions. After drying the leaves were infested with N2 nymphs. The samples were assessed for mortality 5 days after infestation.

[4] = test system: Euschistus heros (Neotropical Brown Stink Bug); assay: Example B6: Euschistus heros, sprayed soybean leaves, mortality and growth inhibition; settings: 120 h, application rate of 200 ppm, N2 nymphs, 5 days after infestation, read-out: effect in at least one of the two categories (mortality or growth inhibition)
Procedure: Soybean leaves on agar in 24-well microtiter plates were sprayed with aqueous test solutions prepared from 10,000 ppm DMSO stock solutions. After drying the leaves were infested with N2 nymphs. The samples were assessed for mortality and growth inhibition in comparison to untreated samples 5 days after infestation.

[5] = test system: Myzus persicae (Green Peach Aphid); assay: Example B8: Myzus persicae, sprayed sunflower leaf discs, mortality; settings: foliar, 144 h, application rate of 200 ppm, leaf disc spray, aphid population of mixed ages, 6 days after infestation
Procedure: Sunflower leaf discs were placed onto agar in a 24-well microtiter plate and sprayed with aqueous test solutions prepared from 10,000 ppm DMSO stock solutions. After drying, the leaf discs were infested with an aphid population of mixed ages. The samples were assessed for mortality 6 days after infestation.

[6] = test system: Plutella xylostella (Diamond Back Moth); assay: Example B10: Plutella xylostella, treated artificial diet, growth inhibition; settings: 120 h, application rate of 200 ppm, L2 larvae, 5 days after infestation
Procedure: 24-well microtiter plates with artificial diet were treated with aqueous test solutions prepared from 10,000 ppm DMSO stock solutions by pipetting. After drying, the plates were infested with L2 larvae (10 to 15 per well). The samples were assessed for growth inhibition in comparison to untreated samples 5 days after infestation. Control of Plutella xylostella by a test sample is given when the growth inhibition is higher than the untreated sample.

[7] = test system: Plutella xylostella (Diamond Back Moth); assay: Example B12: Plutella xylostella, treated artificial diet, mortality; settings: 120 h, application rate of 200 ppm, L2 larvae, 5 days after infestation
Procedure: 24-well microtiter plates with artificial diet were treated with aqueous test solutions prepared from 10,000 ppm DMSO stock solutions by pipetting. After drying, the plates were infested with L2 larvae (10 to 15 per well). The samples were assessed for mortality 5 days after infestation.

[8] = test system: Plutella xylostella (Diamond Back Moth); assay: Example B13: Plutella xylostella, treated artificial diet, mortality and growth inhibition; settings: 120 h, application rate of 200 ppm, L2 larvae, 5 days after infestation, read-out: effect in at least one of the two categories (mortality or growth inhibition)
Procedure: 24-well microtiter plates with artificial diet were treated with aqueous test solutions prepared from 10,000 ppm DMSO stock solutions by pipetting. After drying, the plates were infested with L2 larvae (10 to 15 per well). The samples were assessed for mortality and growth inhibition in comparison to untreated samples 5 days after infestation.

[9] = test system: Spodoptera littoralis (Egyptian Cotton Leaf Worm); assay: Example B14: Spodoptera littoralis, sprayed cotton leaf discs, anti-feeding effect; settings: foliar, 72 h, application rate of 200 ppm, L1 larvae, 3 days after infestation
Procedure: Cotton leaf discs were placed onto agar in 24-well microtiter plates and sprayed with aqueous test solutions prepared from 10,000 ppm DMSO stock solutions. After drying the leaf discs were infested with five L1 larvae. The samples were assessed for anti-feeding effect in comparison to untreated samples 3 days after infestation. Control of Spodoptera littoralis by a test sample is given when the anti-feedant effect is higher than the untreated sample.

[10] = test system: Spodoptera littoralis (Egyptian Cotton Leaf Worm); assay: Example B16: Spodoptera littoralis, sprayed cotton leaf discs, mortality; settings: foliar, 72 h, application rate of 200 ppm, L1 larvae, 3 days after infestation
Procedure: Cotton leaf discs were placed onto agar in 24-well microtiter plates and sprayed with aqueous test solutions prepared from 10,000 ppm DMSO stock solutions. After drying the leaf discs were infested with five L1 larvae. The samples were assessed for mortality 3 days after infestation.

[11] = test system: Spodoptera littoralis (Egyptian Cotton Leaf Worm); assay: Example B17: Spodoptera littoralis, sprayed cotton leaf discs, mortality, anti-feeding effect and growth inhibition; settings: foliar, 72 h, application rate of 200 ppm, L1 larvae, 3 days after infestation, read-out: control (at least one of mortality, anti-feedant effect, growth inhibition)
Procedure: Cotton leaf discs were placed onto agar in 24-well microtiter plates and sprayed with aqueous test solutions prepared from 10,000 ppm DMSO stock solutions. After drying the leaf discs were infested with five L1 larvae. The samples were assessed for mortality, anti-feeding effect, and growth inhibition in comparison to untreated samples 3 days after infestation. Control of Spodoptera littoralis by a test sample is given when at least one of the categories mortality, anti-feedant effect, and growth inhibition is higher than the untreated sample.

[12] = test system: Spodoptera littoralis (Egyptian Cotton Leaf Worm); assay: Example B18: Spodoptera littoralis, compound in agar absorbed by lettuce roots, mortality, anti-feedant effect and growth inhibition; settings: 144 h, test rate of 12.5 ppm, uptake by lettuce roots, Spodoptera eggs, 6 days after infestation, read-out: effect in at least one of the three categories (mortality, anti-feeding, or growth inhibition)
Description: Test compounds were applied by pipette from 10,000 ppm DMSO stock solutions into 24-well plates and mixed with agar. Lettuce seeds were placed onto the agar and the multi well plate was closed by another plate which contained also agar. After 7 days the compound was absorbed by the roots and the lettuce grew into the lid plate. The lettuce leaves were then cut off into the lid plate. Spodoptera eggs were pipetted through a plastic stencil onto a humid gel blotting paper and the lid plate was closed with it. The samples were assessed for mortality, anti-feedant effect and growth inhibition in comparison to untreated samples 6 days after infestation.

[13] = test system: Spodoptera littoralis (Egyptian Cotton Leaf Worm); assay: Example B19: Spodoptera littoralis, compound in agar absorbed by lettuce roots, anti-feedant effect; settings: 144 h, test rate of 12.5 ppm, uptake by lettuce roots, Spodoptera eggs, 6 days after infestation, read-out: anti-feeding
Description: Test compounds were applied by pipette prepared from 10,000 ppm DMSO stock solutions into 24-well plates and mixed with agar. Lettuce seeds were placed onto the agar and the multi well plate was closed by another plate which contained also agar. After 7 days the compound was absorbed by the roots and the lettuce grew into the lid plate. The lettuce leaves were then cut off into the lid plate. Spodoptera eggs were pipetted through a plastic stencil onto a humid gel blotting paper and the lid plate was closed with it. The samples were assessed for anti-feedant effect in comparison to untreated samples 6 days after infestation.

[14] = test system: Spodoptera littoralis (Egyptian Cotton Leaf Worm); assay: Example B20: Spodoptera littoralis, compound in agar absorbed by lettuce roots, mortality; settings: 144 h, test rate of 12.5 ppm, uptake by lettuce roots, Spodoptera eggs, 6 days after infestation
Description: Test compounds were applied by pipette prepared from 10,000 ppm DMSO stock solutions into 24-well plates and mixed with agar. Lettuce seeds were placed onto the agar and the multi well plate was closed by another plate which contained also agar. After 7 days the compound was absorbed by the roots and the lettuce grew into the lid plate. The lettuce leaves were then cut off into the lid plate.
Spodoptera eggs were pipetted through a plastic stencil onto a humid gel blotting paper and the lid plate was closed with it. The samples were assessed for mortality 6 days after infestation.

[15] = test system: Aedes aegypti (Yellow Fever Mosquito); assay: Example B23: Aedes aegypti, dry deposits in 12 well tissue culture plates, control; settings: application rate of 200 ppm in ethanol, adult females, after 48 h and/or 24 h
Procedure: Test solutions, at an application rate of 200 ppm in ethanol, were applied to 12 well tissue culture plates. Once the deposits were dry, five, two to five day old adult female Aedes aegypti were added to each well, and sustained with a 10% sucrose solution in a cotton wool plug. Assessment of knockdown was made one hour after introduction, and mortality was assessed at 24 and 48 hours after introduction.

CCS(=O)(=O)c1cc(-n2ccc(C(F)(F)F)n2)ccc1-c1cn2cnc(C(F)(F)F)cc2n1 [Compound P1, 2-[2-ethylsulfonyl-4-[3-(trifluoromethyl)pyrazol-1-yl]phenyl]-7-(trifluoromethyl)imidazo[1,2-c]pyrimidine]
≥ 80%: percent effect (mortality or growth inhibition) at 200 ppm [1] | mortality at 200 ppm [2] | mortality at 200 ppm [3] | percent effect (mortality or growth inhibition) at 200 ppm [4] | mortality at 200 ppm [5] | inhibition at 200 ppm [6] | mortality at 200 ppm [7] | percent effect (mortality or growth inhibition) at 200 ppm [8] | pest or weed control at 200 ppm [9] | mortality at 200 ppm [10] | percent control (mortality, anti-feedant effect or growth inhibition) at 200 ppm [11] | percent effect (mortality, anti-feeding or growth inhibition) at 12.5 ppm [12] | pest or weed control at 12.5 ppm [13] | mortality at 12.5 ppm [14] | pest or weed control at 200 ppm [15]

CCS(=O)(=O)c1cc(-c2ccc(C(F)(F)F)cc2)ccc1-c1cn2cnc(C(F)(F)F)cc2n1 [Compound P2, 2-[2-ethylsulfonyl-4-[4-(trifluoromethyl)phenyl]phenyl]-7-(trifluoromethyl)imidazo[1,2-c]pyrimidine]
≥ 80%: percent effect (mortality or growth inhibition) at 200 ppm [1] | mortality at 200 ppm [2] | mortality at 200 ppm [7] | percent effect (mortality or growth inhibition) at 200 ppm [8] | pest or weed control at 200 ppm [9] | mortality at 200 ppm [10] | percent control (mortality, anti-feedant effect or growth inhibition) at 200 ppm [11] | pest or weed control at 200 ppm [15]

CCS(=O)(=O)c1cc(-c2ccc(Cl)cc2)ccc1-c1cn2cnc(C(F)(F)F)cc2n1 [Compound P3]
≥ 80%: percent effect (mortality or growth inhibition) at 200 ppm [1] | mortality at 200 ppm [2] | pest or weed control at 200 ppm [9] | mortality at 200 ppm [10] | percent control (mortality, anti-feedant effect or growth inhibition) at 200 ppm [11]

CCS(=O)(=O)c1cc(-c2ccc(C(F)(F)F)cc2)cnc1-c1cn2cnc(C(F)(F)F)cc2n1 [Compound P6, 2-[3-ethylsulfonyl-5-[4-(trifluoromethyl)phenyl]-2-pyridyl]-7-(trifluoromethyl)imidazo[1,2-c]pyrimidine]
≥ 80%: percent effect (mortality or growth inhibition) at 200 ppm [1] | mortality at 200 ppm [2] | mortality at 200 ppm [3] | percent effect (mortality or growth inhibition) at 200 ppm [4] | mortality at 200 ppm [7] | percent effect (mortality or growth inhibition) at 200 ppm [8] | pest or weed control at 200 ppm [9] | mortality at 200 ppm [10] | percent control (mortality, anti-feedant effect or growth inhibition) at 200 ppm [11] | percent effect (mortality, anti-feeding or growth inhibition) at 12.5 ppm [12] | pest or weed control at 12.5 ppm [13] | mortality at 12.5 ppm [14] | pest or weed control at 200 ppm [15]

CCS(=O)(=O)c1cc(-c2ccc(OC(F)(F)F)cc2)cnc1-c1cn2cnc(C(F)(F)F)cc2n1 [Compound P12]
≥ 80%: percent effect (mortality or growth inhibition) at 200 ppm [1] | mortality at 200 ppm [2] | mortality at 200 ppm [3] | percent effect (mortality or growth inhibition) at 200 ppm [4] | mortality at 200 ppm [7] | percent effect (mortality or growth inhibition) at 200 ppm [8] | pest or weed control at 200 ppm [9] | mortality at 200 ppm [10] | percent control (mortality, anti-feedant effect or growth inhibition) at 200 ppm [11] | percent effect (mortality, anti-feeding or growth inhibition) at 12.5 ppm [12] | pest or weed control at 12.5 ppm [13] | mortality at 12.5 ppm [14] | pest or weed control at 200 ppm [15]
